# ChEMBL document CHEMBL1136498, “Ureas of 5-aminopyrazole and 2-aminothiazole inhibit growth of gram-positive bacteria” (Bioorg Med Chem Lett, 2003)
# The source made the active and inactive calls. The rule behind the calls is not given here.
# How the values were obtained:
# Staphylococcus aureus [1] = assay: Concentration that inhibits 50% growth of methicillin resistant Staphylococcus aureus in the microdilution wells; assay type: functional, organism-based
# Staphylococcus aureus [2] = assay: Minimal inhibitory concentration for Staphylococcus aureus bacteria (ATCC 9604 SV) was determined by broth microdilution methodology; IA=Inactive; assay type: functional, organism-based
# Staphylococcus aureus [3] = assay: Concentration that inhibits 50% growth of methicillin resistant Staphylococcus aureus in the microdilution wells; IA=Inactive; assay type: functional, organism-based
# Staphylococcus aureus [4] = assay: Minimal inhibitory concentration for Staphylococcus aureus bacteria (ATCC 9604 SV) was determined by broth microdilution methodology; assay type: functional
# Mus musculus [5] = assay: In vivo efficacy versus methicillin resistant Staphylococcus aureus in mice administered sc at 20 mg/kg, expressed as percent survival; assay type: functional; settings: route subcutaneous
# Mus musculus [6] = assay: In vivo efficacy versus methicillin resistant Staphylococcus aureus in mice administered sc at 2mg/kg, expressed as percent survival; assay type: functional
# Mus musculus [7] = assay: In vivo efficacy versus methicillin resistant Staphylococcus aureus in mice administered sc at 2x2mg/kg, expressed as percent survival; assay type: functional
# Mus musculus [8] = assay: In vivo efficacy versus methicillin resistant Staphylococcus aureus in mice administered sc at 2x20mg/kg, expressed as percent survival; assay type: functional
Structure (SMILES),IC50 (Staphylococcus aureus [1]),MIC (Staphylococcus aureus [4]),other results
O=C(Nc1nc(-c2ccc(Cl)cc2)cs1)Nc1c(Cl)cc(Cl)cc1Cl,927 nM,–,–
Cc1cc(C)cc(NC(=O)Nc2cc(-c3ccccc3)nn2-c2ccc(C(F)(F)F)cc2)c1,–,–,MIC (Staphylococcus aureus [2]): inactive; IC50 (Staphylococcus aureus [3]): Not Active
Cc1sc(NC(=O)Nc2cc(C(F)(F)F)cc(C(F)(F)F)c2)nc1-c1ccc(Br)cc1,838 nM,–,–
Cc1cc(C)cc(NC(=O)Nc2nc(-c3ccc(Cl)cc3)cs2)c1,> 5000 nM,–,–
O=C(Nc1cc(Cl)cc(Cl)c1)Nc1cc(-c2ccccc2)nn1-c1ccc(C(F)(F)F)cc1,81 nM,12.3 µg/mL,survival at 20 mg/kg (Mus musculus [5]): 12.5%; survival at 2 mg/kg (Mus musculus [6]): 0%
O=C(Nc1cc(C(F)(F)F)cc(C(F)(F)F)c1)Nc1cc(CO)nn1-c1ccc(Br)cc1,4240 nM,6.54 µg/mL,Survival (Mus musculus [7]): 33%; Survival (Mus musculus [8]): 33%
O=C(NCc1cccc(Cl)c1)Nc1nc(C2CCCC2)cs1,–,8.4 µg/mL,Survival (Mus musculus [7]): 25%; Survival (Mus musculus [8]): 25%
COc1ccc(-c2csc(NC(=O)Nc3cc(C(F)(F)F)cc(C(F)(F)F)c3)n2)c(OC)c1,> 5000 nM,–,–
CC(C)(C)c1cc(NC(=O)Nc2cc(Cl)cc(Cl)c2)n(-c2ccc(Br)cc2)n1,132 nM,< 0.723 µg/mL,survival at 20 mg/kg (Mus musculus [5]): 0%; survival at 2 mg/kg (Mus musculus [6]): 0%
O=C(Nc1ccc(Cl)c(C(F)(F)F)c1)Nc1cc(-c2ccccc2)nn1-c1ccc(C(F)(F)F)cc1,96 nM,< 0.787 µg/mL,–
O=C(Nc1cc(C(F)(F)F)cc(C(F)(F)F)c1)Nc1cc(-c2ccncc2)nn1-c1ccc(C(F)(F)F)cc1,214 nM,1.68 µg/mL,Survival (Mus musculus [7]): 0%; survival at 20 mg/kg (Mus musculus [5]): 25%; survival at 2 mg/kg (Mus musculus [6]): 25%; Survival (Mus musculus [8]): 17%
O=C(Nc1ccc(SC(F)(F)F)cc1)Nc1nc(-c2ccc(F)c(F)c2)cs1,134 nM,< 0.647 µg/mL,–
COc1ccc(OC)c(-c2csc(NC(=O)Nc3cc(C(F)(F)F)cc(C(F)(F)F)c3)n2)c1,> 5000 nM,–,–
O=C(Nc1cc(Cl)cc(Cl)c1)Nc1cc(-c2cccs2)nn1-c1ccc(Br)cc1,71 nM,0.847 µg/mL,survival at 20 mg/kg (Mus musculus [5]): 25%; survival at 2 mg/kg (Mus musculus [6]): 0%
O=C(NCc1ccc(Cl)c(Cl)c1)Nc1nc(-c2ccc(Br)cc2)cs1,–,11.4 µg/mL,–
CCOC(=O)c1cnn(-c2ccc(Br)cc2)c1NC(=O)Nc1cc(C(F)(F)F)cc(C(F)(F)F)c1,261 nM,< 0.848 µg/mL,–
CC(C)(C)c1csc(NC(=O)NCc2cccc(Cl)c2)n1,–,8.1 µg/mL,Survival (Mus musculus [7]): 25%; Survival (Mus musculus [8]): 50%
Cc1cc(NC(=O)Nc2cc(C(F)(F)F)cc(C(F)(F)F)c2)n(-c2ccc(Br)cc2)n1,268 nM,< 0.761 µg/mL,–

Structure (SMILES),IC50 (Staphylococcus aureus [1]),MIC (Staphylococcus aureus [4]),other results
O=C(Nc1ccc(F)c(C(F)(F)F)c1)Nc1nc(-c2ccc(F)c(F)c2)cs1,180 nM,< 0.626 µg/mL,survival at 20 mg/kg (Mus musculus [5]): 0%; survival at 2 mg/kg (Mus musculus [6]): 0%
O=C(Nc1cc(C(F)(F)F)cc(C(F)(F)F)c1)Nc1nc(-c2cccs2)cs1,259 nM,1.31 µg/mL,–
CN[C@H](CC(C)C)C(=O)N[C@H]1C(=O)N[C@@H](CC(N)=O)C(=O)N[C@H]2C(=O)N[C@H]3C(=O)N[C@H](C(=O)N[C@H](C(=O)O)c4cc(O)cc(O)c4-c4cc3ccc4O)[C@H](O)c3ccc(c(Cl)c3)Oc3cc2cc(c3O[C@@H]2O[C@H](CO)[C@@H](O)[C@H](O)[C@H]2O[C@H]2C[C@](C)(N)[C@H](O)[C@H](C)O2)Oc2ccc(cc2Cl)[C@H]1O [VANCOMYCIN],839 nM,0.75 µg/mL,Survival (Mus musculus [7]): 25%; Survival (Mus musculus [8]): 100%
COc1cc(NC(=O)Nc2nc(-c3ccc(Cl)cc3)cs2)cc(OC)c1,> 5000 nM,–,–
CCOC(=O)c1cc(NC(=O)Nc2cc(C(F)(F)F)cc(C(F)(F)F)c2)n(-c2ccc(Br)cc2)n1,3100 nM,> 14.1 µg/mL,Survival (Mus musculus [7]): 0%; Survival (Mus musculus [8]): 33%
O=C(Nc1cc(C(F)(F)F)cc(C(F)(F)F)c1)Nc1c(-c2ccccc2)cnn1-c1ccc(C(F)(F)F)cc1,330 nM,–,survival at 20 mg/kg (Mus musculus [5]): 0%; survival at 2 mg/kg (Mus musculus [6]): 0%
O=C(Nc1cc(C(F)(F)F)cc(C(F)(F)F)c1)Nc1nc(CCc2ccccc2)cs1,367 nM,23 µg/mL,–
O=C(Nc1cc(C(F)(F)F)cc(C(F)(F)F)c1)Nc1cc(-c2ccccc2)nn1-c1ccc(C(F)(F)F)cc1,54 nM,< 0.838 µg/mL,survival at 20 mg/kg (Mus musculus [5]): 0%; survival at 2 mg/kg (Mus musculus [6]): 0%
Cc1ccccc1NC(=O)Nc1cc(-c2ccccc2)nn1-c1ccc(C(F)(F)F)cc1,–,–,MIC (Staphylococcus aureus [2]): inactive; IC50 (Staphylococcus aureus [3]): Not Active
O=C(Nc1cc(C(F)(F)F)cc(C(F)(F)F)c1)Nc1nc(-c2ccc(Br)cc2)cs1,133 nM,–,–
COCCN(CCOC)Cc1cc(NC(=O)Nc2cc(C(F)(F)F)cc(C(F)(F)F)c2)n(-c2ccc(Br)cc2)n1,1560 nM,16 µg/mL,Survival (Mus musculus [7]): 0%; survival at 20 mg/kg (Mus musculus [5]): 25%; survival at 2 mg/kg (Mus musculus [6]): 25%; Survival (Mus musculus [8]): 33%
O=C(Nc1ccc(C(F)(F)F)cc1Cl)Nc1cc(-c2ccccc2)nn1-c1ccc(C(F)(F)F)cc1,–,–,MIC (Staphylococcus aureus [2]): inactive; IC50 (Staphylococcus aureus [3]): Not Active
O=C(Nc1ccccc1-c1ccccc1)Nc1cc(-c2ccccc2)nn1-c1ccc(C(F)(F)F)cc1,–,–,MIC (Staphylococcus aureus [2]): inactive; IC50 (Staphylococcus aureus [3]): Not Active
O=C(Nc1cc(Cl)cc(Cl)c1)Nc1cc(-c2ccccc2)nn1-c1ccc(Cl)cc1,148 nM,> 22.9 µg/mL,survival at 20 mg/kg (Mus musculus [5]): 25%; survival at 2 mg/kg (Mus musculus [6]): 25%
O=C(Nc1cccc(Br)c1)Nc1nc(-c2ccc(Br)cc2)cs1,543 nM,–,–
O=C(Nc1nc(-c2ccc(Cl)cc2)cs1)Nc1ccc(Br)cc1C(F)(F)F,4710 nM,–,–
O=C(Nc1cc(C(F)(F)F)cc(C(F)(F)F)c1)Nc1nc(CCCO)cs1,2070 nM,–,–
